{"source": "ChEMBL document CHEMBL4184116", "about": "“New butenolide derivatives from the marine sponge-derived fungus Aspergillus terreus” (Bioorg Med Chem Lett, 2018)", "key": {"Alpha glucosidase": {"biological_target": "Alpha glucosidase (Homo sapiens, UniProt O43451+P10253+P14410+Q2M2H8)", "test": "Inhibition of alpha-glucosidase (unknown origin) using p-nitro-phenyl-alpha-D-glucopyranoside as substrate preincubated for 5 mins with substrate followed by enzyme addition measure after 15 mins by spectrophotometric method", "type": "protein assay"}, "[1]": {"test": "Antioxidant activity assessed as DPPH radical scavenging activity incubated for 30 mins under dark condition by spectrophotometric analysis", "type": "functional"}, "[2]": {"test": "Antioxidant activity assessed as DPPH radical scavenging activity incubated for 30 mins under dark condition", "type": "functional"}}}
{"compound": "COC(=O)[C@]1(Cc2ccc(O)cc2)OC(=O)C(O)=C1c1ccc(O)cc1", "values": [{"measurement": "IC50", "setting": "Alpha glucosidase", "result": 85.13, "unit": "µM"}, {"measurement": "IC50", "setting": "[1]", "result": 86, "unit": "µM"}]}
{"compound": "COC(=O)[C@]1(Cc2ccc3c(c2)CCC(C)(C)O3)OC(=O)C(O)=C1c1ccc(O)cc1", "values": [{"measurement": "IC50", "setting": "Alpha glucosidase", "result": 47.33, "unit": "µM"}, {"measurement": "IC50", "setting": "[1]", "result": 97, "unit": "µM"}]}
{"compound": "COC(=O)[C@@]1(O)OC(=O)C(Cc2ccc3c(c2)CCC(C)(C)O3)=C1c1ccc(O)cc1", "values": [{"measurement": "IC50", "setting": "Alpha glucosidase", "result": 10.3, "unit": "µM"}, {"measurement": "IC50", "setting": "[1]", "result": "> 200", "unit": "µM"}]}
{"compound": "CC1(C)CCc2cc(CC3=C(c4ccc(O)cc4)[C@@](O)(C(=O)O)OC3=O)ccc2O1", "values": [{"measurement": "IC50", "setting": "Alpha glucosidase", "result": 7.63, "unit": "µM"}, {"measurement": "IC50", "setting": "[1]", "result": "> 200", "unit": "µM"}]}
{"compound": "CC1(C)CCc2cc(CC3OC(=O)C(O)=C3c3ccc(O)cc3)ccc2O1", "note": "(configuration not stated)", "values": [{"measurement": "IC50", "setting": "Alpha glucosidase", "result": 11.65, "unit": "µM"}, {"measurement": "IC50", "setting": "[1]", "result": 90, "unit": "µM"}]}
{"compound": "CO[C@@H]1OC(=O)C(Cc2ccc(O)c(CC=C(C)C)c2)=C1c1ccc(O)cc1", "values": [{"measurement": "IC50", "setting": "Alpha glucosidase", "result": 9.98, "unit": "µM"}, {"measurement": "IC50", "setting": "[1]", "result": "> 200", "unit": "µM"}]}
{"compound": "COC(=O)[C@]1(Cc2ccc(O)c(CC=C(C)C)c2)OC(=O)C(OC)=C1c1ccc(O)cc1", "values": [{"measurement": "IC50", "setting": "[2]", "result": 125, "unit": "µM"}]}
{"compound": "COC(=O)[C@]1(Cc2ccc3c(c2)C[C@H](O)C(C)(C)O3)OC(=O)C(OC)=C1c1ccc(O)cc1", "values": [{"measurement": "IC50", "setting": "[2]", "result": "> 500", "unit": "µM"}]}
{"compound": "COC(=O)[C@]1(Cc2ccc3c(c2)C[C@@H](O)C(C)(C)O3)OC(=O)C(O)=C1c1ccc(O)cc1", "values": [{"measurement": "IC50", "setting": "Alpha glucosidase", "result": 110.27, "unit": "µM"}, {"measurement": "IC50", "setting": "[1]", "result": 135, "unit": "µM"}]}
{"compound": "CC1(C)CCc2cc(CC3=C(c4ccc(O)cc4)C(O)OC3=O)ccc2O1", "note": "(configuration not stated)", "values": [{"measurement": "IC50", "setting": "Alpha glucosidase", "result": 13.36, "unit": "µM"}, {"measurement": "IC50", "setting": "[1]", "result": "> 200", "unit": "µM"}]}
{"compound": "CO[C@H]1OC(=O)C(Cc2ccc(O)c(CC=C(C)C)c2)=C1c1ccc(O)cc1", "values": [{"measurement": "IC50", "setting": "Alpha glucosidase", "result": 8.65, "unit": "µM"}, {"measurement": "IC50", "setting": "[1]", "result": "> 200", "unit": "µM"}]}
{"compound": "COC(=O)[C@]1(Cc2ccc(O)c(CC=C(C)C)c2)OC(=O)C(O)=C1c1ccc(O)cc1", "values": [{"measurement": "IC50", "setting": "Alpha glucosidase", "result": 14.18, "unit": "µM"}, {"measurement": "IC50", "setting": "[1]", "result": 38, "unit": "µM"}]}
{"compound": "CC(=O)N[C@@H](CS)C(=O)O", "note": "[ACETYLCYSTEINE]", "values": [{"measurement": "IC50", "setting": "[1]", "result": 85, "unit": "µM"}]}
{"compound": "O=C1O/C(=C\\c2ccc(O)cc2)C(O)=C1c1ccc(O)cc1", "note": "[ASPULVINONE E]", "values": [{"measurement": "IC50", "setting": "Alpha glucosidase", "result": "> 400", "unit": "µM"}, {"measurement": "IC50", "setting": "[1]", "result": 106, "unit": "µM"}]}
{"compound": "COC(=O)[C@]1(Cc2ccc3c(c2)C[C@H](C(C)(C)O)O3)OC(=O)C(O)=C1c1ccc(O)cc1", "note": "[BUTYROLACTONE IV]", "values": [{"measurement": "IC50", "setting": "Alpha glucosidase", "result": "> 400", "unit": "µM"}, {"measurement": "IC50", "setting": "[1]", "result": 129, "unit": "µM"}]}
